Here are results for one compound from patent US20240262844A1, “PYRIDINIUM SALTS AND METHODS OF USE” (UNIVERSITY OF WYOMING, priority 2023, published 2024).

Assay [1] is described as follows: Stern-Volmer fluorescence quenching analysis. In kind it is physicochemical. The following applies: 100 μM pyridinium salt in 20 mM NH4OAc pH 6.9, increasing NATA, 375 nm excitation. Here is the method:
FIG. 7 is a Stern-Volmer plot of florescence quenching of pyridinium salt 2a with a small molecule tryptophan analog N-acetyltryptophanamide (NATA) according to at least one embodiment of the present disclosure. The Stern-Volmer plot was generated by excitation of a 100 μM solution of pyridinium salt 2a in 20 mM NH4OAc pH 6.9 in the presence of increasing concentrations of NATA. Analyses were performed at 375 nm excitation. The calculated Kq, assuming 11 (0.2548 ns) quenching, was determined to be about 1.019E5 M^−1s^−1. The calculated Kq, assuming τ2 (3.399 ns) quenching, was determined to be about 7.638E3 M^−1s^−1.

Assay [2] addresses T1, chymotrypsinogen (25 kDa) (Bos taurus, UniProt P00766).
T1 construct: α-Chymotrypsinogen A from bovine pancreas; purchased Sigma Aldrich; host or cells: bovine pancreas
Briefly: Photochemical labeling of chymotrypsinogen (LC/MS, MS-MS). In kind it is biochemical, bovine. As to conditions: digestion/MS-MS. On the procedure: (§1) General Procedure B: Photochemical Irradiation of Peptides and Proteins: To a 2 mL Pyrex LC/MS vial (Thermo model #03-391-39) were sequentially added solutions containing the desired biomolecule, glutathione (GSH), pyridinium salt, and ammonium acetate (NH4OAc). The resulting solution was diluted to a final volume of 500 μL and then sparged using nitrogen for a minimum of 30 minutes prior to irradiation. The actively sparging solution was then placed in an EvoluChem™ PhotoRedOx Box photoreactor that was equipped with a Kessil, PR160 427 nm LED Lamp and was then irradiated (100% lamp intensity) for the designated time at room temperature while maintaining active sparging. The resultant reaction mixture was then analyzed directly by LC/MS. Analysis of labeling outcomes using LC/MS was performed either by extracted ion chromatogram intensities (method A) or by integrating the area under the peaks associated with peptide content (method B). These values were totaled, and estimated percentages were assigned according to relative intensities of peaks or ion counts.
Labeling of Chymotrypsinogen with pyridinium salt 2a (Chymotrypsinogen-2a Conjugate). […] The reaction mixture was directly analyzed by LC/MS using method A and was estimated to have proceeded with 90% conversion with a 20.7:8.3:1 mono:di:tri labeled ratio and 4% glutathionylation of all unlabeled and labeled protein content. […]

In assay [3] the target is T2, β2-Microglobulin (11.7 kDa) (Homo sapiens, UniProt P61769).
T2 construct: β2-microglobulin (Human Urine≥98% (SDS-PAGE)); purchased Lee Biosolutions; host or cells: human urine
Briefly: Photochemical labeling of β2-microglobulin (LC/MS, MS-MS). In kind it is biochemical. Here is the method: as §1, with “These values were totaled, and estimated percentages were assigned according to relative intensities of peaks or ion counts.” left out
Labeling of β2-Microglobulin with Pyridinium Salt 2a (B2-Microglobulin-2a Conjugate). […] The reaction mixture was directly analyzed by LC/MS using method A and was estimated to have proceeded with 88% conversion with a >20:1 mono:di labeled ratio and 7% glutathionylation of all unlabeled and labeled protein content. β2-Microglobulin-2a conjugate (retention time (Tr)=3.26-4.70 min). […]

Structures can show the parent of a compound that is named as a salt.

T2 sequence (P61769 21-119): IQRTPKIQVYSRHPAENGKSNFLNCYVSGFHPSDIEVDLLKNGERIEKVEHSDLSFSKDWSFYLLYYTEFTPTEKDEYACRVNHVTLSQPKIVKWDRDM

Turning to `COC(=O)N(C)[n+]1c(C)cc(-c2ccc3cc(OC)ccc3c2)cc1C` [Pyridinium salt 2a, 1-((methoxycarbonyl)(methyl)amino)-4-(6-methoxynapthalen-2-yl)-2,6-dimethylpyridin-1-ium tetrafluoroborate], in assay [1], the “calculated Kq, assuming τ1 (0.2548 ns) quenching” value is reported as “about 1.019E5 M^−1s^−1” and the “calculated Kq, assuming τ2 (3.399 ns) quenching” value was “about 7.638E3 M^−1s^−1”. Moreover, the “detectable locations of labeling” value in assay [2] is “Trp-215 and Trp-237”. Besides, in assay [3] (10 μM β2-microglobulin, 200 μM pyridinium salt, 1 mM glutathione, 30 minutes), the “glutathionylation of all unlabeled and labeled protein content” value amounted to 7%. Moreover, the “site of tryptophan modification” value in assay [3] (digestion/MS-MS) is reported as “Trp-60”.
